Results published in DBAASP.
In brackets after ≈: the same amount, converted by molar mass.

Columns and labels:
Experiment in all cases: ≥ marks a high value that may be exact or a test limit, other limits are often not marked, values filed in µg/mL are converted to µM
[1] = system: Candida albicans ATCC 20032
[2] = system: Bacillus subtilis ATCC 6633
[3] = system: Staphylococcus aureus ATCC 25923
[4] = system: Escherichia coli ATCC 25922
[5] = system: Staphylococcus epidermidis ATCC 12228
[6] = system: Shigella dysenteriae ATCC 9752
[7] = system: Staphylococcus aureus ATCC 6538P
[8] = system: Micrococcus luteus ATCC 10240
[9] = system: Pseudomonas aeruginosa ATCC 27853
[10] = system: Klebsiella pneumoniae ATCC 10031
[11] = system: Salmonella enterica subsp. enterica serovar Typhimurium ATCC 14028
[12] = system: Staphylococcus aureus TK784
[13] = system: Candida albicans NCPF 1467
[14] = system: Staphylococcus aureus NCTC 10788
[15] = system: Salmonella typhimurium
[16] = system: Shigella dysenteriae
[17] = system: Proteus mirabilis
[18] = system: Bacillus subtilis
[19] = system: Klebsiella pneumoniae
[20] = system: Escherichia coli
[21] = system: Candida albicans
[22] = system: Serratia marcescens
[23] = system: Pseudomonas aeruginosa
[24] = system: Micrococcus luteus
[25] = system: Escherichia coli NCTC 10418

Row | MIC [1] | MIC [2] | MIC [3] | MIC [4] | MIC [5] | MIC [6] | MIC [7] | MIC [8] | MIC [9] | MIC [10] | MIC [11] | MIC [12] | Structure (SMILES) | further results
1 | ≥ 64.6 µM | ≥ 64.6 µM | > 64.6 µM | > 64.6 µM |  |  |  |  |  |  |  |  | CC[C@H](C)[C@H](N)C(=O)N[C@@H](CC(C)C)C(=O)NCC(=O)N1CCC[C@H]1C(=O)N[C@H](C(=O)N[C@@H](CC(C)C)C(=O)NCC(=O)N[C@@H](CC(C)C)C(=O)N[C@H](C(=O)NCC(=O)N[C@@H](CO)C(=O)N[C@@H](C)C(=O)N[C@@H](CC(C)C)C(=O)NCC(=O)NCC(=O)N[C@@H](CC(C)C)C(=O)N[C@H](C(N)=O)[C@@H](C)CC)C(C)C)C(C)C [ILGPVLGLVGSALGGLI] | 
2 | ≥ 35.7 µM | ≥ 35.7 µM | 6.72 µM (≈ 18.8 µg/mL) | 13.4 µM (≈ 37.5 µg/mL) |  |  |  |  |  |  |  |  | CC[C@H](C)[C@H](NC(=O)CN)C(=O)NCC(=O)N[C@H](C(=O)N[C@@H](CCCCN)C(=O)N[C@@H](Cc1ccccc1)C(=O)N[C@@H](CC(C)C)C(=O)NCC(=O)NCC(=O)N[C@H](C(=O)N[C@@H](CCCCN)C(=O)N[C@H](C(=O)N[C@@H](C)C(=O)N[C@@H](CC(C)C)C(=O)N[C@@H](CCCCN)C(=O)NCC(=O)N[C@@H](C)C(=O)N[C@@H](CC(C)C)C(=O)N[C@@H](CCCCN)C(=O)N[C@@H](CCC(=O)O)C(=O)N[C@@H](CC(C)C)C(=O)N[C@@H](C)C(=O)N[C@@H](Cc1ccccc1)C(=O)N[C@H](C(=O)N[C@@H](Cc1ccc(O)cc1)C(=O)N[C@H](C(=O)N[C@@H](CC(N)=O)C(N)=O)C(C)C)[C@@H](C)O)[C@@H](C)O)C(C)C)[C@@H](C)O [GIGTKFLGGVKTALKGALKELAFTYVN] | 
3 |  | 0.894 µM (≈ 1.3 µg/mL) |  | > 55 µM | 0.894 µM (≈ 1.3 µg/mL) | ≥ 55 µM | 1.72 µM (≈ 2.5 µg/mL) | 1.72 µM (≈ 2.5 µg/mL) | > 55 µM | ≥ 55 µM | > 55 µM | 3.44 µM (≈ 5 µg/mL) | CC(C)C[C@H](NC(=O)[C@H](CC(C)C)NC(=O)[C@H](Cc1c[nH]c2ccccc12)NC(=O)[C@H](CCCCN)NC(=O)[C@H](CC(C)C)NC(=O)[C@H](CC(C)C)NC(=O)[C@H](Cc1c[nH]c2ccccc12)NC(=O)[C@H](CCCCN)NC(=O)[C@H](CC(C)C)NC(=O)[C@@H](N)CC(C)C)C(=O)N[C@@H](CCCCN)C(N)=O [LLKWLLKWLLK] | 
4 |  | 1.68 µM (≈ 2.5 µg/mL) |  | 27 µM (≈ 40 µg/mL) | 1.68 µM (≈ 2.5 µg/mL) | ≥ 53.9 µM | 1.68 µM (≈ 2.5 µg/mL) | 3.37 µM (≈ 5 µg/mL) | 13.5 µM (≈ 20 µg/mL) | 27 µM (≈ 40 µg/mL) | 53.9 µM (≈ 79.9 µg/mL) | 27 µM (≈ 40 µg/mL) | CC(C)C[C@H](NC(=O)[C@H](Cc1c[nH]c2ccccc12)NC(=O)[C@H](CCCCN)NC(=O)[C@H](CCCCN)NC(=O)[C@H](CC(C)C)NC(=O)[C@H](Cc1c[nH]c2ccccc12)NC(=O)[C@H](CCCCN)NC(=O)[C@H](CC(C)C)NC(=O)[C@@H](N)CC(C)C)C(=O)N[C@@H](CCCCN)C(=O)N[C@@H](CCCCN)C(N)=O [LLKWLKKWLKK] | 
5 | 4.83 µM (≈ 9.4 µg/mL) | 9.66 µM (≈ 18.8 µg/mL) | 4.83 µM (≈ 9.4 µg/mL) | > 51.4 µM |  |  |  |  |  |  |  |  | CC[C@H](C)[C@H](N)C(=O)N[C@@H](CC(C)C)C(=O)NCC(=O)N1CCC[C@H]1C(=O)N[C@H](C(=O)N[C@@H](CC(C)C)C(=O)NCC(=O)N[C@@H](CC(C)C)C(=O)N[C@H](C(=O)NCC(=O)N[C@@H](CC(N)=O)C(=O)N[C@@H](C)C(=O)N[C@@H](CC(C)C)C(=O)NCC(=O)NCC(=O)N[C@@H](CC(C)C)C(=O)N[C@H](C(=O)N[C@@H](CCCCN)C(=O)N[C@@H](CCCCN)C(=O)N[C@@H](CC(C)C)C(N)=O)[C@@H](C)CC)C(C)C)C(C)C [ILGPVLGLVGNALGGLIKKL] | 
6 |  |  |  |  |  |  |  |  |  |  |  |  | CC[C@H](C)[C@H](N)C(=O)N[C@H](C(=O)NCC(=O)N[C@@H](C)C(=O)N[C@H](C(=O)N[C@@H](C)C(=O)N[C@@H](C)C(=O)N[C@@H](C)C(=O)N[C@@H](CC(C)C)C(=O)N1CCC[C@H]1C(=O)N[C@@H](Cc1cnc[nH]1)C(=O)N[C@H](C(=O)N[C@H](C(=O)N[C@@H](CC(N)=O)C(=O)N[C@@H](C)C(=O)N[C@H](C(=O)N[C@@H](CCCCN)C(=O)N[C@@H](CC(N)=O)C(=O)N[C@H](C(=O)N[C@@H](Cc1ccccc1)C(=O)O)[C@@H](C)O)[C@@H](C)CC)[C@@H](C)CC)C(C)C)[C@@H](C)CC)[C@@H](C)CC [IIGAIAAALPHVINAIKNTF] | MIC [13]: ≥ 120 µM; MIC [14]: 16 µM (≈ 32.8 µg/mL)
7 |  |  |  |  |  |  |  |  |  |  |  |  | CC[C@H](C)[C@H](NC(=O)CN)C(=O)N[C@@H](Cc1ccccc1)C(=O)N[C@@H](CO)C(=O)N[C@@H](CCCCN)C(=O)N[C@@H](CC(C)C)C(=O)N[C@@H](C)C(=O)NCC(=O)N[C@@H](CCCCN)C(=O)N[C@@H](CCCCN)C(=O)N[C@H](C(=O)N[C@@H](CCCCN)C(=O)N[C@@H](CC(N)=O)C(=O)N[C@@H](CC(C)C)C(=O)N[C@@H](CC(C)C)C(=O)N[C@H](C(=O)N[C@@H](CO)C(=O)NCC(=O)N[C@@H](CC(C)C)C(=O)N[C@@H](CCCCN)C(=O)N[C@@H](CC(N)=O)C(=O)N[C@H](C(=O)NCC(=O)N[C@@H](CCCCN)C(=O)N[C@@H](CCC(=O)O)C(=O)N[C@H](C(=O)NCC(=O)N[C@@H](CCSC)C(=O)N[C@@H](CC(=O)O)C(=O)N[C@H](C(=O)N[C@H](C(=O)N[C@@H](CCCN=C(N)N)C(=O)N[C@H](C(=O)NCC(=O)N[C@H](C(=O)N[C@@H](CC(=O)O)C(=O)N[C@H](C(=O)N[C@@H](C)C(=O)NCC(=O)N[C@H]1CSSC[C@@H](C(=O)O)NC(=O)[C@H](CCC(=O)O)NC(=O)CNC(=O)[C@H](CCCCN)NC(=O)[C@H]([C@@H](C)CC)NC(=O)[C@H](CCCCN)NC1=O)[C@@H](C)CC)[C@@H](C)CC)[C@@H](C)O)C(C)C)C(C)C)C(C)C)[C@@H](C)CC)[C@@H](C)CC)[C@@H](C)CC [GIFSKLAGKKIKNLLISGLKNIGKEVGMDVVRTGIDIAGCKIKGEC] | MIC [15]: 5.19 µM (≈ 25 µg/mL); MIC [16]: 2.6 µM (≈ 12.5 µg/mL); MIC [17]: ≥ 41.5 µM; MIC [18]: 1.31 µM (≈ 6.3 µg/mL); MIC [19]: 2.6 µM (≈ 12.5 µg/mL); MIC [20]: 5.19 µM (≈ 25 µg/mL); MIC [21]: 41.5 µM (≈ 200 µg/mL); MIC [22]: ≥ 41.5 µM; MIC [23]: 5.19 µM (≈ 25 µg/mL); MIC [24]: 1.31 µM (≈ 6.3 µg/mL)
8 |  |  |  |  |  |  |  |  |  |  |  |  | CC[C@H](C)[C@H](NC(=O)[C@H](CO)NC(=O)[C@H](CC(N)=O)NC(=O)[C@@H](NC(=O)[C@H](Cc1ccccc1)NC(=O)[C@H](C)NC(=O)[C@H](CO)NC(=O)[C@H](C)NC(=O)[C@H](Cc1ccccc1)NC(=O)[C@H](CC(C)C)NC(=O)[C@H](CCCCN)NC(=O)[C@H](C)NC(=O)CNC(=O)[C@H](CC(C)C)NC(=O)[C@H](CCCCN)NC(=O)[C@H](CC(C)C)NC(=O)[C@H](CCCCN)NC(=O)[C@H](CC(C)C)NC(=O)[C@H](CC(C)C)NC(=O)[C@H](Cc1ccccc1)NC(=O)CN)C(C)C)C(=O)N[C@@H](CCCCN)C(N)=O [GFLLKLKLGAKLFASAFVNSIK] | MIC [25]: 13.5 µM (≈ 32 µg/mL); MIC [13]: 6.76 µM (≈ 16 µg/mL); MIC [14]: 6.76 µM (≈ 16 µg/mL)
9 |  | 0.709 µM (≈ 0.999 µg/mL) |  | 1.42 µM (≈ 2 µg/mL) | 0.709 µM (≈ 0.999 µg/mL) | 0.709 µM (≈ 0.999 µg/mL) | 0.709 µM (≈ 0.999 µg/mL) | 1.42 µM (≈ 2 µg/mL) | 2.84 µM (≈ 4 µg/mL) | 1.42 µM (≈ 2 µg/mL) | 0.709 µM (≈ 0.999 µg/mL) | 2.84 µM (≈ 4 µg/mL) | CC(C)C[C@H](NC(=O)[C@H](Cc1c[nH]c2ccccc12)NC(=O)[C@H](CCCCN)NC(=O)[C@H](CC(C)C)NC(=O)[C@H](CC(C)C)NC(=O)[C@H](CCCCN)NC(=O)[C@H](CCCCN)NC(=O)[C@H](CC(C)C)NC(=O)[C@H](CC(C)C)NC(=O)[C@H](CCCCN)NC(=O)[C@@H](N)CCCCN)C(N)=O [KKLLKKLLKWL] | 
